In patent US4549023A, “3-Aminoindazole derivatives” (priority 1980, dated 1985):
Where two headings read alike, the source gives them in different places.

What was measured:
[1] = system: acetic acid-induced writhing in mice; test: Acetic Acid-Writhing Test (analgesic activity); format: in vivo, Male ddy-strain mice; settings: 100 mg/kg, oral, hydrochloric acid salts
Description: Acetic acid-writhing test was carried out according to Koster et al., Fed. Proc., 18, 412 (1959). […] Thirty minutes later, the mice were intraperitoneally injected with 0.1 ml/10 g of 0.7% acetic acid physiological salt solution as a stimulant. Ten minutes after the stimulant injection, writhing frequency as pain response was observed and recorded over 10 minutes.
The inhibition percentage of the test compound was represented as the ratio of the inhibition of the writhing frequency.
Analgesic activity of 3-aminoindazole derivative hydrochloric acid salts was measured by acetic acid-writhing test.

[2] = system: carrageenin edema in rat's paw; test: Carrageenin Edema Test in Rat's Paw (anti-inflammatory activity); format: in vivo, Female Wistar rats; settings: for inhibition in vivo at 100 mg/kg: Rattus norvegicus, hydrochloric acid salts; for Inhibition values compared with comparative compounds: Table 1, 100 mg/kg
Description: A standard method of Carrageenin Edema Test in Rat's Paw described in C. A. Winter et al., Proc. Soc. Exp. Biol. Med., 111, 544 (1962) was employed.
[…] One hour later, the pad of a hind paw of the rat was injected with 0.1 ml of 1% aqueous carrageenin solution. The volume of the paw was measured both before the injection of carrageenin and three hours after the injection.
The edema inhibition percentage of the test compound was calculated from the ratio of the increase in the volume of the affected paw of the test animals to the increase in the volume of the affected paw of the controls.
The anti-inflammatory activity of the 3-aminoindazole derivative hydrochloric acid salts of this invention was measured.
The anti-inflammatory activity of the 3-aminoindazole derivative hydrochloric acid salts obtained by Examples 1-49 of this invention was measured by the standard method of carrageenin edema test. In these tests, the amount of the administration of the salts was 100 mg/kg. The results are shown in Table 17 (Inhibition (%) was measured three hours after the injection).

[3] = system: carrageenin-inflamed hind paw of the rat (pressure pain); test: Randall-Selitto Test (analgesic activity); format: in vivo, Female wister rats; settings: for Analgesic Coefficient, Table 18: 100 mg/kg, hydrochloric acid salts; for Analgesic Coefficient, Table 18 / Analgesic coefficient: water 0.8; for Analgesic coefficient: Randall-Selitto, oral, 50 mg/kg per method; for Analgesic activity by the Randall-Selitto test: rat, in vivo
Description: The Randall-Selitto analgesic activity test was carried out according to the general method described in J. O. Randall & J. J. Selitto, Arch. Int. Pharmacodyn, 111, 409 (1957). Female wister rats weighing 120-150 g were orally administered 50 mg/kg of the test compound as an aqueous solution. Thirty minutes later, the pad of a hind paw of the rat was injected with 0.1 ml of 1% aqueous carrageenin solution. Pressure was applied to the paw where edema was formed by Balance-type Pressure Device (Ugo Basile Company; Italy) 1, 2, 3 and 4 hours after the injection. The weight when the test animals began to struggle with pain was measured. The analgesic activity is represented by an analgesic coefficient which is obtained by dividing the average weight measured 1.5, 2.5, 3.5 and 4.5 hours after the administration by the applied weight prior to the administration.
The analgesic activity of the 3-aminoindazole derivative hydrochloric acid salts obtained by Examples 2, 6, 10, 18, 22 and 28 of this invention was measured by the standard method of Randall-Selitto test. In these tests, the amount of the administration of the salts was 100 mg/kg.

[4] = Acute toxicity (LD50), intravenous injection; settings: mouse, in vivo, male ddY-strain mice, read-out: LD50, Table 19
Description: Acute toxicity was measured by an ordinary method described in Finney DJ Probit Analysis Cambridge University Press 48, (1952). Ddy mice weighing about 18 g on average, each group consisting of 10 animals, were […] injected with the physiological salt solution containing the test compound. The amount of the test compound administered was varied in 5-8 groups. Three days after the administration, dead animals were counted in each group. The amount of the test compound killing half the number of the animals (LD50) was calculated from the results.
The acute toxicity of the 3-aminoindazole derivatives and their hydrochloric acid salts obtained by Examples 1-49 of this invention was measured by giving male ddY-strain mice an intravenous injection.

gastric ulcer in rats = test: Anti-Ulcer Test: occurrence of gastric ulcer by test compound alone; format: in vivo, Male donryu rats
Description: Ulcer inhibition of 3-(3-diethylaminopropylamino)indazole (10) and 1-(3-piperidinopropyl)-3-aminoindazole (18), typical and preferred compounds of this invention, was measured.

[5] = system: gastric ulcer caused by indomethacin; settings: for Ulcer index: rat, in vivo
Description: The test compound was suspended in 1% HCO-60 (trade name for polyoxyethylene hydrogenated castor oil; a product of Nikko Chemical Co., Ltd., Japan) at the concentration of 10 mg/ml. Male donryu rats weighing 150-160 g were orally administered 100 mg/kg of the test compound. The occurrence of gastric ulcer was examined 24 hours after the administration.
It is well known that the single use of acidic non-steroidal anti-inflammatory drugs causes a side effect in digestive tracts such as gastric ulcer.

primary inflammation = settings: Silvest et al., Arzneim-Forsch, 16, 59 (1966); cited from earlier work
[6] = po, 3 h, 100 mg/kg, measured three hours after the injection, read-out: Inhibition (carrageenin edema), Table 17
[7] = 100 mg/kg, oral, 3 h after carrageenin, read-out: Inhibition (carrageenin edema), Table 1
[8] = 100 mg/kg singly administered at one time, oral
[9] = 100 mg/kg compound together with 20 mg/kg of indomethacin
[10] = 100 mg/kg compound together with 10 mg/kg of indomethacin

| Compound | Inhibition (acetic acid-writhing), Table 3 [1] | inhibition in vivo at 100 mg/kg [2, 6] | inhibition in vivo at 100 mg/kg [2, 7] | Inhibition values compared with comparative compounds [2] | Analgesic Coefficient, Table 18 [3] | LD50 at 72 h [4] | other results |
| --- | --- | --- | --- | --- | --- | --- | --- |
| Nc1nn(-c2ccccc2)c2ccccc12 [Compound C-7, 1-phenyl-3-aminoindazole, reference compound] | 17% |  |  |  |  |  |  |
| CCN(CC)CCCNc1n[nH]c2ccccc12 [Compound (10), 3-(3-diethylaminopropylamino)indazole] |  | 66% | 66% | higher than that of the compound C-1 | 1.31 | 233 mg/kg | Gastric ulcer occurrence (gastric ulcer in rats; [8]): Gastric ulcer did not occur; Occurrence frequency in combination [5, 9]: not changed; Ulcer index in combination [5, 9]: 14.9 mm |
| CN(C)CCn1nc(N)c2ccccc21 [Compound (28), 1-(2-dimethylaminoethyl)-3-aminoindazole] |  | 44% | 44% | higher than those of the compounds C-2 and C-3 | 0.96 | 343 mg/kg |  |
| CC1CCCCN1CCCNc1n[nH]c2ccccc12 (stereo not drawn) [Compound (6), 3-{3-(2-methylpiperidino)propylamino}indazole] | 49% | 67% | 67% | higher than that of the compound C-1 | 1.11 | 91 mg/kg | Inhibition (carrageenin edema), Table 2 ([2]; 25 mg/kg, oral): 40%; Inhibition (carrageenin edema), Table 2 ([2]; 50 mg/kg, oral): 53%; Inhibition (carrageenin edema), Table 2 ([2]; 100 mg/kg, oral): 67%; Analgesic coefficient [3]: 1.11; Analgesic activity by the Randall-Selitto test [3]: potent analgesic activity |
| CN(C)CCCOc1nn(Cc2ccccc2)c2ccccc12 [Compound C-4, 1-benzyl-3-(3-dimethylaminopropoxy)indazole, reference compound] |  |  |  |  |  |  | Inhibition (carrageenin edema), Table 2 ([2]; 25 mg/kg, oral): 8%; Inhibition (carrageenin edema), Table 2 ([2]; 50 mg/kg, oral): 20%; Inhibition (carrageenin edema), Table 2 ([2]; 100 mg/kg, oral): 51%; Effect against primary inflammation (primary inflammation): effective against primary inflammation |
| COc1ccc2c(c1)c(CC(=O)O)c(C)n2C(=O)c1ccc(Cl)cc1 [indomethacin, reference compound] |  |  |  |  |  |  | Ulcer index ([5]; 10 mg/kg): 10.2 mm; Ulcer index ([5]; 20 mg/kg): 34.3 mm |
| CN(C)CCCNc1nn(-c2ccccc2)c2ccccc12 [Compound C-6, 1-phenyl-3-(3-dimethylaminopropylamino)indazole, reference compound] | 0% |  |  |  |  |  |  |
| CC1CCCCN1CCCn1nc(N)c2ccccc21 (stereo not drawn) [Compound (22), 1-{3-(2-methylpiperidino)propyl}-3-aminoindazole] | 31% | 51% | 51% | higher than those of the compounds C-2 and C-3 | 1.05 | 102 mg/kg | Inhibition (carrageenin edema), Table 2 ([2]; 25 mg/kg, oral): 29%; Inhibition (carrageenin edema), Table 2 ([2]; 50 mg/kg, oral): 33%; Inhibition (carrageenin edema), Table 2 ([2]; 100 mg/kg, oral): 51%; Analgesic coefficient [3]: 1.05; Analgesic activity by the Randall-Selitto test [3]: potent analgesic activity |
| CC(C)CC(CCNc1nn(CCC(C)N2CCCCC2)c2ccccc12)N1CCCCC1 (stereo not drawn) [Compound (44), 1-(3-piperidinobutyl)-3-(5-methyl-3-piperidinohexylamino)indazole] |  | 21% |  |  |  | 123 mg/kg |  |
| c1ccc2c(NCCCN3CCCCC3)n[nH]c2c1 [Compound (2), 3-(3-piperidinopropylamino)indazole] | 53% | 55% | 55% | higher than that of the compound C-1 | 0.98 | 101 mg/kg |  |
| c1ccc2c(NCCCCCCN3CCCCC3)n[nH]c2c1 [Compound (3), 3-(6-piperidinohexylamino)indazole] |  | 30% |  |  |  | 143 mg/kg |  |
| CCN(CC)C(C)CCNc1n[nH]c2ccccc12 (stereo not drawn) [Compound (16)] |  | 63% |  |  |  | 184 mg/kg |  |
| CCCCN(CCCC)CCCn1nc(N)c2ccccc21 [Compound (27), 1-(3-di-n-butylaminopropyl)-3-aminoindazole] |  | 57% |  |  |  | 124 mg/kg |  |
| CCN(CC)CCCNc1nn(CCCN2CCCCC2)c2ccccc12 [Compound (38), 1-(3-piperidinopropyl)-3-(3-diethylaminopropylamino)indazole] |  | 29% | 29% |  |  | 168 mg/kg |  |
| Nc1nn(CCCN2CCCCC2)c2ccccc12 [Compound (18), 1-(3-piperidinopropyl)-3-aminoindazole] | 43% | 54% | 54% | higher than those of the compounds C-2 and C-3 | 1.38 | 102 mg/kg | Gastric ulcer occurrence (gastric ulcer in rats; [8]): Gastric ulcer did not occur; Gastric ulcer occurrence (gastric ulcer in rats; administered for 5 days): gastric ulcer did not occur; Occurrence frequency in combination [5, 10]: not changed; Ulcer index in combination [5, 10]: 2.5 mm |
| Nc1nn(CCCN2CCC(Cl)CC2)c2ccccc12 [Compound (25), 1-{3-(4-chloropiperidino)propyl}-3-aminoindazole] |  | 59% |  |  |  | 356 mg/kg |  |
